What was measured:
[1] = tested on: v7.5/tk; assay type: cell-based, vaccinia virus
[2] = tested on: Hutk^− cell line
[3] = tested on: vEL/tk; assay type: cell-based, vaccinia virus
[4] = tested on: vaccinia WR; assay type: cell-based, vaccinia virus
[5] = tested on: naïve T cells; assay type: cell-based, Human
[6] = tested on: Mouse splenic T cells activated by plate bound anti-CD3 antibody; settings: cited from earlier work

O=c1[nH]c(=O)n([C@H]2C[C@H](O)[C@@H](CO)O2)cc1Br [bromodeoxyuridine]
Concentration sufficient to inhibit plaque formation [1]: 125 mM | Viability of the cells [2]: does not interfere with the viability of the cells | Concentration sufficient to inhibit plaque formation [3]: 125 mM | Plaque formation [3]: an equal number of plaques, albeit much smaller in size | Concentration sufficient to interfere with the ability to plaque [4]: 25 mM

Cn1cc(C2=C(c3cn(CCCN)c4ccccc34)C(=O)NC2=O)c2ccccc21 [Bis VIII, Bisindolylmaleimide VIII]
Killing of the total number of T cells [5]: 95% | T cell death [6]: ~100%
